The target of assay [1] is Eukaryotic translation initiation factor 2-alpha kinase 3 (Homo sapiens) (UniProt Q9NZJ5). In words: Inhibition of human PEK (536 to end residues) assessed as residual activity at 1 uM using RSRSRSRSRSRSRSR as substrate measured after 40 mins in presence of [gamma33P]ATP by scintillation counting method relative to control.
The target in assay [2] is Activin receptor type-2A (Homo sapiens) (UniProt P27037). In words: Inhibition of human ACTR2A (162 to end residues) assessed as residual activity at 1 uM using casein as substrate incubated for 120 mins in presence of [gamma-33ATP] by scintillation counting based radiometry assay relative to control.
Sequence of Activin receptor type-2A (Homo sapiens) (P27037 whole entry, the tested form may be a part): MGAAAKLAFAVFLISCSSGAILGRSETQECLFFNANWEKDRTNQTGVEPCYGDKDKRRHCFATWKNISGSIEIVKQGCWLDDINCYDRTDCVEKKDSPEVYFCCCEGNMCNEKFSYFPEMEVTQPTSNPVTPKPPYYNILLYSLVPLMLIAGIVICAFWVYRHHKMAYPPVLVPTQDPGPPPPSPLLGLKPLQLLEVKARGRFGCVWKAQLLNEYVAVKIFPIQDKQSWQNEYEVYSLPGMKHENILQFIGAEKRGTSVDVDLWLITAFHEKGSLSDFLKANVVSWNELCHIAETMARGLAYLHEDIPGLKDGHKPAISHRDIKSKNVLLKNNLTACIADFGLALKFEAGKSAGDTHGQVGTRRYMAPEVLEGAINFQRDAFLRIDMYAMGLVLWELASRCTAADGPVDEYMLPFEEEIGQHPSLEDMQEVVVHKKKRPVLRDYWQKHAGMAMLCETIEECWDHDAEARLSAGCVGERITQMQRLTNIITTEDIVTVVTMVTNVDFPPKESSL
The target of assay [3] is Serine/threonine-protein kinase 10 (Homo sapiens) (UniProt O94804). As to the kind of experiment: Inhibition of recombinant human LOK (1 to 348 residues) assessed as residual activity at 1 uM using RLGRDKYKTLRQIRQ as substrate after 40 mins in presence of [gamma-33ATP] by scintillation counting based radiometry assay relative to control.
Sequence of Serine/threonine-protein kinase 10 (Homo sapiens) (O94804 whole entry, looked up, the tested form may be a part): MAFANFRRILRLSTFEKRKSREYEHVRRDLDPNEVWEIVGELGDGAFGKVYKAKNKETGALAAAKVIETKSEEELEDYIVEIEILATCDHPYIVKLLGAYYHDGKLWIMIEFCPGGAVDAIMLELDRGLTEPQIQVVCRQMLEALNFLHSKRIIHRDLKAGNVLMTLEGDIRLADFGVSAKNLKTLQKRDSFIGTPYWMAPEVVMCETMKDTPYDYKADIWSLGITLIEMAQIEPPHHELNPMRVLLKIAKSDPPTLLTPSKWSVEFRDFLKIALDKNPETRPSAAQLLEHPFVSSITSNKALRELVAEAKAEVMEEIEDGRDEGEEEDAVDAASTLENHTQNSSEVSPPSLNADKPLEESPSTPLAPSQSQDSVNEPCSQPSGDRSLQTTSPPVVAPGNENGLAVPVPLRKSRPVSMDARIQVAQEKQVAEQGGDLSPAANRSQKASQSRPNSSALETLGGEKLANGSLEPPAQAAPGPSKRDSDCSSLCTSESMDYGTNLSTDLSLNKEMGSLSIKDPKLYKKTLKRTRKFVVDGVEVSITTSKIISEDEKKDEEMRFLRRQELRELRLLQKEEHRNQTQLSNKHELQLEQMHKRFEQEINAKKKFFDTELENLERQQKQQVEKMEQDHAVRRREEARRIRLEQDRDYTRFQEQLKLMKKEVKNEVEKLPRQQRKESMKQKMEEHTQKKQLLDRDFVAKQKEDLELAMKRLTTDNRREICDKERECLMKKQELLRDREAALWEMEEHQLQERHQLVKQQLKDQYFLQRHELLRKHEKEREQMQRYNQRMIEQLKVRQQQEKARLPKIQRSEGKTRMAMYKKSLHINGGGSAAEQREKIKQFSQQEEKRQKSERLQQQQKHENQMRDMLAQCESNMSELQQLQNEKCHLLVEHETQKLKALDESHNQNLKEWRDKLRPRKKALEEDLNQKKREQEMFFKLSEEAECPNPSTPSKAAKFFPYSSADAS
Assay [4] is filed under the species Homo sapiens. As to the kind of experiment: Inhibition of recombinant human BRSK2 S251I mutant (2 to end residues) assessed as residual activity at 1 uM using KKLNRTLSFAEPG substrate incubated for 40 mins in presence of [gamma-33ATP] by scintillation counting based radiometry assay relative to control.
The target in assay [5] is Protein kinase C beta type (Homo sapiens) (UniProt P05771). As to the kind of experiment: Inhibition of recombinant human PKCbeta1 (2 to end residues) assessed as residual activity at 1 uM using histone H1 as substrate measured after 40 mins in presence of [gamma33P]ATP by scintillation counting method relative to control.
Assay [6] addresses Insulin-like growth factor 1 receptor (Homo sapiens) (UniProt P08069). As to the kind of experiment: Inhibition of human IGF1R (959 to end residues) assessed as residual activity at 1 uM using KKKSPGEYVNIEFG as substrate after 40 mins by [gamma-33ATP] radiometric assay relative to control.
The target of assay [7] is Serine/threonine-protein kinase ICK (Homo sapiens) (UniProt Q9UPZ9). In words: Inhibition of human ICK (1 to 312 residues) assessed as residual activity at 1 uM using RRRFRPASPLRGPPK as substrate after 40 mins by [gamma-33ATP] radiometric assay relative to control.
Sequence of Serine/threonine-protein kinase ICK (Homo sapiens) (Q9UPZ9 whole entry, the tested form may be a part): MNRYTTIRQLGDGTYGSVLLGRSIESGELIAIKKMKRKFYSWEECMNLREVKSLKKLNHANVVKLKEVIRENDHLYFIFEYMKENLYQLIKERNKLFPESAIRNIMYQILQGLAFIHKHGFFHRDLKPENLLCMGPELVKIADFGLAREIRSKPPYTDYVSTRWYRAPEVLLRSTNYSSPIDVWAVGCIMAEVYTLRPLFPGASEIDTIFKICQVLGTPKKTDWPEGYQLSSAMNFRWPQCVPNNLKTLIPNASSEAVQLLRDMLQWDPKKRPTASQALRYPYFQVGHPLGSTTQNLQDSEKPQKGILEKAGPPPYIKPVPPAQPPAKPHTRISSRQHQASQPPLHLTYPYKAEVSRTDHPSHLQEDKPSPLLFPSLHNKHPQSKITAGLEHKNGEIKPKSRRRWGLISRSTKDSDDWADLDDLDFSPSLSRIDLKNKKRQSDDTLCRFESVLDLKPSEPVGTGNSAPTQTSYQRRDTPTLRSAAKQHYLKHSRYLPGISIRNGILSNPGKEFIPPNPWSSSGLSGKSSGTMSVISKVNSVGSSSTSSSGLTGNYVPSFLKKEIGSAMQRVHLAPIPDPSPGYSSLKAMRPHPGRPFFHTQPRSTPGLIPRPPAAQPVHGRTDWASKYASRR
For assay [8], the species on record is Mus musculus. As to the kind of experiment: Inhibition of recombinant full-length mouse PI3K p110alpha/p85alpha at 1 uM assessed as residual activity at 1 uM using phosphatidylinositol-4, 5-bisphosphate as substrate measured after 40 mins by HTRF assay.
For assay [9], the target named is Mitogen-activated protein kinase kinase kinase 9 (Homo sapiens) (UniProt P80192). As to the kind of experiment: Inhibition of recombinant human MLK1 (134 to 414 residues) assessed as residual activity at 1 uM using casein as substrate incubated for 40 mins in presence of [gamma-33ATP by scintillation counting based radiometry assay relative to control.
In assay [10] the target is Leucine-rich repeat serine/threonine-protein kinase 2 (Homo sapiens) (UniProt Q5S007). In words: Inhibition of recombinant human LRRK2 (970 to end residues) assessed as residual activity at 1 uM using RLGRDKYKTLRQIRQ as substrate after 40 mins in presence of [gamma-33ATP] by scintillation counting based radiometry assay relative to control.
The species named for assay [11] is Homo sapiens. In words: Inhibition of recombinant human MAPKAPK2 A399G mutant (46 to end residues) assessed as residual activity at 1 uM using KKLNRTLSVA as substrate incubated for 40 mins in presence of [gamma-33ATP by scintillation counting based radiometry assay relative to control.
In assay [12] the target is Tyrosine-protein kinase Srms (Homo sapiens) (UniProt Q9H3Y6). As to the kind of experiment: Inhibition of human SRMS assessed as residual activity at 1 uM by radiometric method relative to control.
Sequence of Tyrosine-protein kinase Srms (Homo sapiens) (Q9H3Y6 whole entry): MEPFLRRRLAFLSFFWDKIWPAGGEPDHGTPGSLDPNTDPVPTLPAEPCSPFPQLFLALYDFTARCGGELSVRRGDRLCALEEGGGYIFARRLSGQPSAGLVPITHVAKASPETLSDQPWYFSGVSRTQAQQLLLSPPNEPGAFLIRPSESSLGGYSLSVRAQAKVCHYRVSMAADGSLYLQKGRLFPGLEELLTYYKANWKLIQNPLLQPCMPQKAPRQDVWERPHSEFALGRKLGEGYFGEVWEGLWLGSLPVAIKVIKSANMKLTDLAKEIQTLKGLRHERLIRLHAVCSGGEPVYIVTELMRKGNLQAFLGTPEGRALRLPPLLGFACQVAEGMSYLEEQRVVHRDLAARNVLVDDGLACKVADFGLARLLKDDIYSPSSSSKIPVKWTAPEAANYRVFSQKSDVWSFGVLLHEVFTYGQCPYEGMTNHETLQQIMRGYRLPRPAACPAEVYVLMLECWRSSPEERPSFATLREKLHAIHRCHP
The target in assay [13] is Serine/threonine-protein kinase N2 (Homo sapiens) (UniProt Q16513). As to the kind of experiment: Inhibition of recombinant human PRK2 (501 to end residues) assessed as residual activity at 1 uM using AKRRRLSSLRA as substrate measured after 40 mins in presence of [gamma33P]ATP by scintillation counting method relative to control.
Assay [14] deals with Receptor-type tyrosine-protein kinase FLT3 (Homo sapiens) (UniProt P36888). In words: Inhibition of recombinant human FLT3 (564 to end residues) assessed as residual activity at 1 uM using EAIYAAPFAKKK as substrate at 40 mins in presence of [gamma-33ATP] by scintillation counting based radiometry assay relative to control.
For assay [15], the target named is MAP/microtubule affinity-regulating kinase 3 (Homo sapiens) (UniProt P27448). As to the kind of experiment: Inhibition of recombinant full length human MARK3 assessed as residual activity at 1 uM using KKKVSRSGLYRSP as substrate incubated for 40 mins in presence of [gamma-33ATP by scintillation counting based radiometry assay relative to control.
Assay [16] concerns the target Serine/threonine-protein kinase Nek6 (Homo sapiens) (UniProt Q9HC98). As to the kind of experiment: Inhibition of recombinant human NEK6 (2 to end residues) assessed as residual activity at 1 uM using FLAKSFGSPNRAYKK as substrate measured after 40 mins in presence of [gamma33P]ATP by scintillation counting method relative to control.
For assay [17], the target named is Glycogen synthase kinase-3 beta (Homo sapiens, UniProt P49841, H350L). In words: Inhibition of human GSK-3beta H350L mutant (2 to end residues) at 10 uM using phospho GS2 peptide as substrate after 40 mins by [gamma-33ATP] radiometric assay.
Sequence of Glycogen synthase kinase-3 beta (P49841 whole entry, looked up, stated change not applied): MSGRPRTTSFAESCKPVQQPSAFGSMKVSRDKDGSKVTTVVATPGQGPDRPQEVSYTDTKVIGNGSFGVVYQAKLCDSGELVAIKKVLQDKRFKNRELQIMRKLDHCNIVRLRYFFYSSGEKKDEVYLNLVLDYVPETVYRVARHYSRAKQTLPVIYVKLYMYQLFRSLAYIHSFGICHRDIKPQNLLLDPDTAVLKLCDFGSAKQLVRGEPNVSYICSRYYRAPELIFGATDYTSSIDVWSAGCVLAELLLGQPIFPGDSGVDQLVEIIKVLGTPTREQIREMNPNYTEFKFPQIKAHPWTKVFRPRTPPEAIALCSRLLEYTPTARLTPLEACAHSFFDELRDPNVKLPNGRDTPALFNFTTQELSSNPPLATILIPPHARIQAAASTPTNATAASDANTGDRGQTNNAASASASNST
In assay [18] the test system is Hepatocyte growth factor receptor (Homo sapiens), P08581 [Y1230H]. In words: Inhibition of recombinant human MET A1209G/V1290L/Y1248H mutant (974 to end residues) assessed as residual activity at 1 uM using KKKGQEEEYVFIE as substrate incubated for 40 mins in presence of [gamma-33ATP by scintillation counting based radiometry assay relative to control.
In assay [19] the target is Interleukin-1 receptor-associated kinase 1 (Homo sapiens) (UniProt P51617). As to the kind of experiment: Inhibition of human IRAK1 (194 to end residues) assessed as residual activity at 1 uM using myelin basic protein as substrate after 40 mins by [gamma-33ATP] radiometric assay relative to control.
Sequence of Interleukin-1 receptor-associated kinase 1 (Homo sapiens) (P51617 whole entry, looked up): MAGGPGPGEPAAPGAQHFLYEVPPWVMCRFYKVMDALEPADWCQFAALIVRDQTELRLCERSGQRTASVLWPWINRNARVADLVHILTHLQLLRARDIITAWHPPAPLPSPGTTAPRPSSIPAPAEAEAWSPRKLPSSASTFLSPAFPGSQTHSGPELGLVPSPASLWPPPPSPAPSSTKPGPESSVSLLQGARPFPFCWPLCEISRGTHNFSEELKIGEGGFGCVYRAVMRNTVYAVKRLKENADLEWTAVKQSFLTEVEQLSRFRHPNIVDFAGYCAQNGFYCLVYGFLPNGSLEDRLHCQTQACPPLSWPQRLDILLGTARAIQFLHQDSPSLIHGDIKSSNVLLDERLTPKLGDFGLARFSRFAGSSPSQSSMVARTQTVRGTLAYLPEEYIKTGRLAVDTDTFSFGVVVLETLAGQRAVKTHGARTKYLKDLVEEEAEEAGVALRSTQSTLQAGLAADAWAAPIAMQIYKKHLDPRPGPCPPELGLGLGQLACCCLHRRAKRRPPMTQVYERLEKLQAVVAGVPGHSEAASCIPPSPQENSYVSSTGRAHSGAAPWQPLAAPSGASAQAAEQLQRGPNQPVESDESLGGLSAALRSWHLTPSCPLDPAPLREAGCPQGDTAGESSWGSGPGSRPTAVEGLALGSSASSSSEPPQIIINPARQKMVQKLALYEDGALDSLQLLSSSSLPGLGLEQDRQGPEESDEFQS
The target of assay [20] is Serine/threonine-protein kinase 32B (Homo sapiens) (UniProt Q9NY57). In words: Inhibition of recombinant full-length human STK32B at 1 uM assessed as residual activity at 1 uM using casein as substrate measured after 120 mins in presence of [gamma33P]ATP by scintillation counting method relative to control.
Sequence of Serine/threonine-protein kinase 32B (Homo sapiens) (Q9NY57 whole entry, the tested form may be a part): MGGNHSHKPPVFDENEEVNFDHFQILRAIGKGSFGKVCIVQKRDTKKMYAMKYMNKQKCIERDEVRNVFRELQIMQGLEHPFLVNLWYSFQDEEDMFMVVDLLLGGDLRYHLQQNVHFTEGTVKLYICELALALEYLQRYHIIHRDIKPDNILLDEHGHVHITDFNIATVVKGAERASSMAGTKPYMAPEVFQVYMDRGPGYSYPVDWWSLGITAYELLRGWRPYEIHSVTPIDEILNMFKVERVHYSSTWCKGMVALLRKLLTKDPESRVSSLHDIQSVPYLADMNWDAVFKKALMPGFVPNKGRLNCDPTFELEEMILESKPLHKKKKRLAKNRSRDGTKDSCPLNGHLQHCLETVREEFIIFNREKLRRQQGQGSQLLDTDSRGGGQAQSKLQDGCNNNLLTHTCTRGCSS
In assay [21] the target is Proto-oncogene tyrosine-protein kinase Src (Homo sapiens) (UniProt P12931). In words: Inhibition of human Src (1 to 530 residues) assessed as residual activity at 1 uM using GGEEEEYFELVKKKK as substrate measured after 40 mins in presence of [gamma33P]ATP by scintillation counting method relative to control.
Sequence of Proto-oncogene tyrosine-protein kinase Src (Homo sapiens) (P12931 2-536 limits assumed): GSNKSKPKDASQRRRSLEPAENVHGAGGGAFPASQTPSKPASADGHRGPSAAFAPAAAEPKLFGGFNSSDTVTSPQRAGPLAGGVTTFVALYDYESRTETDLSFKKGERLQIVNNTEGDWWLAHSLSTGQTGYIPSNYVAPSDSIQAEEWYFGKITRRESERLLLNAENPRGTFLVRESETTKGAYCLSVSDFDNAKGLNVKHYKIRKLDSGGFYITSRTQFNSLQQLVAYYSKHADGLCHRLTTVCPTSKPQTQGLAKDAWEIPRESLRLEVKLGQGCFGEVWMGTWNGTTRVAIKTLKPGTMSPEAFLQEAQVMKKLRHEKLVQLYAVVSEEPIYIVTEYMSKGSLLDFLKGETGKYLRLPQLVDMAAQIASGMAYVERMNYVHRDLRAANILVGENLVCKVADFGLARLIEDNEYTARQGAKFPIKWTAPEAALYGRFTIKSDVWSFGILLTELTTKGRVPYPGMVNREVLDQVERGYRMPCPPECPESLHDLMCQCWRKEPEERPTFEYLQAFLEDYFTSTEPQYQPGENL
Assay [22] concerns Fibroblast growth factor receptor 2 (Homo sapiens), P21802 [N549H]. In words: Inhibition of recombinant human FGFR2 N549H mutant (456 to 770 residues) assessed as residual activity at 1 uM using GGEEEEYFELVKKKK as substrate at 40 mins in presence of [gamma-33ATP] by scintillation counting based radiometry assay relative to control.

Each structure is given as a SMILES string.

Sequence of Serine/threonine-protein kinase Nek6 (Homo sapiens) (Q9HC98 whole entry): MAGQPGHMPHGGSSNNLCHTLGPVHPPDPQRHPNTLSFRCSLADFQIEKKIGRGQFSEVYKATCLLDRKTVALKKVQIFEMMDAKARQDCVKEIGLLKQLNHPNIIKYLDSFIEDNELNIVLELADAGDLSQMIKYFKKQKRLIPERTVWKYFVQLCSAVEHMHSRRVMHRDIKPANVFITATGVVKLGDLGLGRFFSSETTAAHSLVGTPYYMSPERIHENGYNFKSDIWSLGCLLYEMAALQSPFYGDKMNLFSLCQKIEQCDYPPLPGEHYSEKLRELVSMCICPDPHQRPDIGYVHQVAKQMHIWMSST

Turning to `N=C1NC(=O)/C(=C\c2ccc(-c3cccc([N+](=O)[O-])c3)o2)S1`, the Activity was found to be 99% in assay [1]; 99% in assay [2]; 95% in assay [3]; 42% in assay [4]; 100% in assay [5]; 108% in [6]. Besides, the Activity was 18% in assay [7]; 97% in assay [8]; 98% in assay [9]; 99% in [10]; 103% in assay [11]; 95% in [12]. For the same molecule, the Activity in [13] came to 95%; in assay [14], 90%; in assay [15], 100%; in assay [16] it was 102%; in [18] it was 106%; in assay [19] it was 100%. Also, the values for the Activity in assay [20], in assay [21] and in assay [22] were 102%, 74% and 96%, respectively. Moreover, half-maximal inhibition in [17] (IC50) was put at 110 nM.
For `C=CCOC(=O)c1cc(-c2ccc(/C=C3/NC(=S)NC3=O)o2)ccc1Cl`, the Activity in [1] stood at 95%; in [2], 100%; in assay [3], 95%; in assay [4], 71%; in assay [5], 113%; in [6], 88%. Besides, the Activity in [7] was 28%; in [8] it was 93%; in [9], 99%; in [10], 100%; in assay [11], 106%; in assay [12] it was 114%. Besides, the Activity in [13] is 107%; in assay [14] it was 108%; in [15], 99%; in assay [16], 98%; in [18], 116%; in assay [19], 90%. The Activity in assay [20] is 86%; in assay [21], 92%; in [22] it was 100%. Also, in assay [17], half-maximal inhibition (IC50) required 218 nM.

These data come from ChEMBL document CHEMBL4334438, “Discovery of novel glycogen synthase kinase-3α inhibitors: Structure-based virtual screening, preliminary SAR and biological evaluation for treatment of acute myeloid leukemia” (Eur J Med Chem, 2019).
